Reference: the kinase profiling compilation of Christmann-Franck et al. (2016)

Assays:
Assay in all cases: KINOMEscan competition binding
Conditions in all cases: compound 10.0 µM
ABL2 (human) = ABL2 (human) (UniProt P42684)
ANKK1 (human) = ANKK1 (human) (UniProt Q8NFD2)
AURKC (human) = AURKC (human) (UniProt Q9UQB9)
BLK (human) = BLK (human) (UniProt P51451)
BRSK2 (human) = BRSK2 (human) (UniProt Q8IWQ3)
CAMK1G (human) = CAMK1G (human) (UniProt Q96NX5)
CAMK4 (human) = CAMK4 (human) (UniProt Q16566)
CDK14 (human) = CDK14 (human) (UniProt O94921)
CIT (human) = CIT (human) (UniProt O14578)
CSNK1E (human) = CSNK1E (human) (UniProt P49674)
CSNK1G3 (human) = CSNK1G3 (human) (UniProt Q9Y6M4)
CaMK1 (human) = CaMK1 (human) (UniProt Q14012)
DAPK3 (human) = DAPK3 (human) (UniProt O43293)
[1] = test system: EIF2AK4 KD2 (human), Q9P2K8 [S808G]
EPHA7 (human) = EPHA7 (human) (UniProt Q15375)
[2] = test system: FLT3 (human), P36888 [N841I]
MAP3K3 (human) = MAP3K3 (human) (UniProt Q99759)
MAP3K4 (human) = MAP3K4 (human) (UniProt Q9Y6R4)
MAP3K4 (human), sequence (Q9Y6R4 whole entry, looked up): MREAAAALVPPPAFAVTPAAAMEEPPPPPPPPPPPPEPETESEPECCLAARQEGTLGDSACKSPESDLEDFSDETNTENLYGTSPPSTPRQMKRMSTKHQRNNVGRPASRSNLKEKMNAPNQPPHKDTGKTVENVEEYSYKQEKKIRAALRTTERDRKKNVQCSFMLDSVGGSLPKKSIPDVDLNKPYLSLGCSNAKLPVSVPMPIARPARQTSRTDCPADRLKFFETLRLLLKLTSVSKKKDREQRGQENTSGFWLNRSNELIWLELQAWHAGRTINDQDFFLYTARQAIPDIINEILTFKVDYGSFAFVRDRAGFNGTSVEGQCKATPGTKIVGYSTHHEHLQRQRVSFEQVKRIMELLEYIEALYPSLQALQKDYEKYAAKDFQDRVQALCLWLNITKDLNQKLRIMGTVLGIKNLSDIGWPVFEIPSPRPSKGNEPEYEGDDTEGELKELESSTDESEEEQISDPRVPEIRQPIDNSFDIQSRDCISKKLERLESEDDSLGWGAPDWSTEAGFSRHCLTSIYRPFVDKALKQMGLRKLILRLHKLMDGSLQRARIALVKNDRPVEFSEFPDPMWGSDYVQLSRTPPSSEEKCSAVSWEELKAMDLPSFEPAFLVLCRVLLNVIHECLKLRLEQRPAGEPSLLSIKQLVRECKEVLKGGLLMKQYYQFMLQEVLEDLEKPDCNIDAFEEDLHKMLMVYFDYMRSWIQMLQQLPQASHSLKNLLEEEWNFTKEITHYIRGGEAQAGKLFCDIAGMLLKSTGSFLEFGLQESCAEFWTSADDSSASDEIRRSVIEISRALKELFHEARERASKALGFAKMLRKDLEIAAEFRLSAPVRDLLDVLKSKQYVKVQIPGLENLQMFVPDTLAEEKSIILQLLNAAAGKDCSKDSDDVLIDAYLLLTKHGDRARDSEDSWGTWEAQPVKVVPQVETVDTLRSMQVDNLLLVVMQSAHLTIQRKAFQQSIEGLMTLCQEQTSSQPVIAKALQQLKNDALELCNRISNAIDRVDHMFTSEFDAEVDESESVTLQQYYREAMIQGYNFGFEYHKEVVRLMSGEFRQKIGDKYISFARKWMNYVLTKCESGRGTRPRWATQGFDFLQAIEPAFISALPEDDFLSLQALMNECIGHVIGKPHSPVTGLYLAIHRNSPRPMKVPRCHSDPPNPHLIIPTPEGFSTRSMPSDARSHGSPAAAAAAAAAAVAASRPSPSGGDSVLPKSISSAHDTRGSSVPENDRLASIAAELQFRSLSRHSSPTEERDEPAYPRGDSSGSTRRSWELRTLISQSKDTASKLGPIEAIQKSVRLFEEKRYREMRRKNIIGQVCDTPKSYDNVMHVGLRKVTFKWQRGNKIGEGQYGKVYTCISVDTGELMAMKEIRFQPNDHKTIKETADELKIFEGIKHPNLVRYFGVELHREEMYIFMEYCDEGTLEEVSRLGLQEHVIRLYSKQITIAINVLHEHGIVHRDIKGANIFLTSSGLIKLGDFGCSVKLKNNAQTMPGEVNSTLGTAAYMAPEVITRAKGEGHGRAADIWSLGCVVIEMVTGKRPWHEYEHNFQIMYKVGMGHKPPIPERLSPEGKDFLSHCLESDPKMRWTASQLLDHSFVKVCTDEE

MAP4K5 (human) = MAP4K5 (human) (UniProt Q9Y4K4)
MAP4K5 (human), sequence (Q9Y4K4 whole entry, looked up): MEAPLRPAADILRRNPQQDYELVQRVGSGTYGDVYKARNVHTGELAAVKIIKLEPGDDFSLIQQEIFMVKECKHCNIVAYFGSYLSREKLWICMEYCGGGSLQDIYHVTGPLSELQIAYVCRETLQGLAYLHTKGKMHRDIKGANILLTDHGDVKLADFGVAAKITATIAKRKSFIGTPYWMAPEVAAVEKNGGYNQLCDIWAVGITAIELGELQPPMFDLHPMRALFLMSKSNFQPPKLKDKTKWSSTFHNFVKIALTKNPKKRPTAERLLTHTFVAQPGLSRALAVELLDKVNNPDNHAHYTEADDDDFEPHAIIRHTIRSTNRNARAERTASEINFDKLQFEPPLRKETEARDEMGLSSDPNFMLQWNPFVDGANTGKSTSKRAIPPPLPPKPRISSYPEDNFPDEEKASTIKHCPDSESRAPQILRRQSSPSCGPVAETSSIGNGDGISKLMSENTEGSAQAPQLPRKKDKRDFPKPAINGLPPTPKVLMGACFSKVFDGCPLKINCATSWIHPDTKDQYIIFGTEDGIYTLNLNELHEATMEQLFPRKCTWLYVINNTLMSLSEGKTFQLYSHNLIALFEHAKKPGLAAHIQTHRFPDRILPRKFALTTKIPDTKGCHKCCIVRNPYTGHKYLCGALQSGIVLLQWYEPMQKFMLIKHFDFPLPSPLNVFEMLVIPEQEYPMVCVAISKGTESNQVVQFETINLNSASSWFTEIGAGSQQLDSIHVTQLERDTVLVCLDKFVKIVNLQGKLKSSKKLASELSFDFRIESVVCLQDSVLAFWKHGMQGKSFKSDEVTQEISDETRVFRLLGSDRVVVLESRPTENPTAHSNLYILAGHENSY

MAPK11 (human) = MAPK11 (human) (UniProt Q15759)
MELK (human) = MELK (human) (UniProt Q14680)
MYLK (human) = MYLK (human) (UniProt Q15746)
NEK5 (human) = NEK5 (human) (UniProt Q6P3R8)
NEK5 (human), sequence (Q6P3R8 whole entry, looked up): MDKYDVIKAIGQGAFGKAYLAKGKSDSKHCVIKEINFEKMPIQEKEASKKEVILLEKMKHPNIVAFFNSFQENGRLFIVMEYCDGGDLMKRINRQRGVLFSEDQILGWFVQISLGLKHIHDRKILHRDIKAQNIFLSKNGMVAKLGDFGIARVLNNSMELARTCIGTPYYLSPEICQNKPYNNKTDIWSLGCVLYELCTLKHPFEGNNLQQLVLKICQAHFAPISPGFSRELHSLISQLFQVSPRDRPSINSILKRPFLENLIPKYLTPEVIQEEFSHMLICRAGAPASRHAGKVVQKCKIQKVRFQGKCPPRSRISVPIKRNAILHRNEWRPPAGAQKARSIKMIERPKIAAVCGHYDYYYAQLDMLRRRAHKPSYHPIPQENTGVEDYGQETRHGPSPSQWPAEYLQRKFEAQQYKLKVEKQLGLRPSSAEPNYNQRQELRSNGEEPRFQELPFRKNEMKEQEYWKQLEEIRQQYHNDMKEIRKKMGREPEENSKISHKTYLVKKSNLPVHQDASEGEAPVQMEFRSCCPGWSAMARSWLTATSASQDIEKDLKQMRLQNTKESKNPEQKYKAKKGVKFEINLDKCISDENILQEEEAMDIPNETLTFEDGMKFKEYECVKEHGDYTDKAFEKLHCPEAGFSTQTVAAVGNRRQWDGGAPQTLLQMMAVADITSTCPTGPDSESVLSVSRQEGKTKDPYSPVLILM

NTRK1 (human) = NTRK1 (human) (UniProt P04629)
NUAK2 (human) = NUAK2 (human) (UniProt Q9H093)
PDPK1 (human) = PDPK1 (human) (UniProt O15530)
PIP4K2B (human) = PIP4K2B (human) (UniProt P78356)
PIP4K2B (human), sequence (P78356 whole entry, looked up): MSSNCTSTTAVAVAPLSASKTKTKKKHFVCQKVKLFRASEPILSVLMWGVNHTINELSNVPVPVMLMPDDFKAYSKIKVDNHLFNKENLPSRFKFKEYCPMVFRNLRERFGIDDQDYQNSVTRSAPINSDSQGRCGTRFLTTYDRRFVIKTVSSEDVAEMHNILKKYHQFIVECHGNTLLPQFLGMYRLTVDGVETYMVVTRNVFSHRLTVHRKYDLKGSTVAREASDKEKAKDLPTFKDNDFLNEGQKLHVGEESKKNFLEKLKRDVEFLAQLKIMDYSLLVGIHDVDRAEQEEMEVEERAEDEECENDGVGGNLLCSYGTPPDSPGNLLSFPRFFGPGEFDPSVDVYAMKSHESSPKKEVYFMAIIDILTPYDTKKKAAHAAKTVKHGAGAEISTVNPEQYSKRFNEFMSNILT

PKN1 (human) = PKN1 (human) (UniProt Q16512)
PLK3 (human) = PLK3 (human) (UniProt Q9H4B4)
PRKCD (human) = PRKCD (human) (UniProt Q05655)
PRKCD (human), sequence (Q05655 whole entry, looked up): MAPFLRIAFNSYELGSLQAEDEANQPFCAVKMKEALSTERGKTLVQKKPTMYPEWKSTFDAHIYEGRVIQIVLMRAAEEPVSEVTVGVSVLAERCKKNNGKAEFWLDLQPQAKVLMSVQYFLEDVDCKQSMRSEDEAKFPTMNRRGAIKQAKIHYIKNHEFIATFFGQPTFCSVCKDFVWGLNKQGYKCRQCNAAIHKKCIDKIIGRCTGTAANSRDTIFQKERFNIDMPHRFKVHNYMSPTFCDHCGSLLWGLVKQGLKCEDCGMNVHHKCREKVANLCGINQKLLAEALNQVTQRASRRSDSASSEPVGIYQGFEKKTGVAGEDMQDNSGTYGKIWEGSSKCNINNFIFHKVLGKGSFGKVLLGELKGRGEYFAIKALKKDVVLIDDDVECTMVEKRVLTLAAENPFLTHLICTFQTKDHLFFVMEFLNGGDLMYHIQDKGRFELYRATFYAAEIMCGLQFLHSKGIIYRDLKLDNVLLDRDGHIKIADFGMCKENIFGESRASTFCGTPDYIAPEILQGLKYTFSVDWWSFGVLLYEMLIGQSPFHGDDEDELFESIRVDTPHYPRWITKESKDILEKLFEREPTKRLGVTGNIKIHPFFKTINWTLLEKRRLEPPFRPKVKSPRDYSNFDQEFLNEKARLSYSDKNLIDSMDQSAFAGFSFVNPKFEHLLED

PTK2B (human) = PTK2B (human) (UniProt Q14289)
PTK6 (human) = PTK6 (human) (UniProt Q13882)
RIOK1 (human) = RIOK1 (human) (UniProt Q9BRS2)
STK35 (human) = STK35 (human) (UniProt Q8TDR2)
TLK1 (human) = TLK1 (human) (UniProt Q9UKI8)
TNIK (human) = TNIK (human) (UniProt Q9UKE5)
TNK1 (human) = TNK1 (human) (UniProt Q13470)
TNNI3K (human) = TNNI3K (human) (UniProt Q59H18)
TSSK1B (human) = TSSK1B (human) (UniProt Q9BXA7)
WEE2 (human) = WEE2 (human) (UniProt P0C1S8)

ANKK1 (human), sequence (Q8NFD2 whole entry, looked up): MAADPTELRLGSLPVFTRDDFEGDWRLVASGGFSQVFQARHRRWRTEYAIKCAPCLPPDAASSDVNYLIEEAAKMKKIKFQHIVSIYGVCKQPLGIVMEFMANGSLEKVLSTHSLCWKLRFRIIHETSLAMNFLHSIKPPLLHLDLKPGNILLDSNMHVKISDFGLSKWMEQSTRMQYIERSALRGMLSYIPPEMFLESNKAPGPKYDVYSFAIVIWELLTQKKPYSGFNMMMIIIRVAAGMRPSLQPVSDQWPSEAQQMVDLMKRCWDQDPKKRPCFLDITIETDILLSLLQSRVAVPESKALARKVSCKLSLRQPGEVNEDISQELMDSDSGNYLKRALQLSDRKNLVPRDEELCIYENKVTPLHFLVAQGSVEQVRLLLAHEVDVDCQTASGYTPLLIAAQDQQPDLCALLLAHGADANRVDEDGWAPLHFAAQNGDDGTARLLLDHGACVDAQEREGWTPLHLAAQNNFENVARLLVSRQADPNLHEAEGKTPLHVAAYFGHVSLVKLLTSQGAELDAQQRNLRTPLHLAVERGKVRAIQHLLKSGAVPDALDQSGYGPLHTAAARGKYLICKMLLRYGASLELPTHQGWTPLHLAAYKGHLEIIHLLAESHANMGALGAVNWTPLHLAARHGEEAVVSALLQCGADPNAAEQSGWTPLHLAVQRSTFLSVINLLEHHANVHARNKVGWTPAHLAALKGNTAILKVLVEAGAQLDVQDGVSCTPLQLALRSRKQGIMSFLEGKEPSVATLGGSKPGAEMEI

For CN(C)C/C=C/C(=O)Nc1cccc(Nc2ncc3c(n2)N(C)c2ccccc2C(=O)N3C)c1, the kinase still bound, per cent of control (ABL2 (human)) was 1.4%, the kinase still bound, per cent of control (ANKK1 (human)) was 6% and the kinase still bound, per cent of control (AURKC (human)) was 9.2%. The kinase still bound, per cent of control (BLK (human)) was 0.7%, the kinase still bound, per cent of control (BRSK2 (human)) was 4.2% and the kinase still bound, per cent of control (CAMK1G (human)) was 52%. It also gave a kinase still bound, per cent of control (CAMK4 (human)) of 100%, a kinase still bound, per cent of control (CDK14 (human)) of 100% and a kinase still bound, per cent of control (CIT (human)) of 86%. The kinase still bound, per cent of control (CSNK1E (human)) was 75%, the kinase still bound, per cent of control (CSNK1G3 (human)) was 39% and the kinase still bound, per cent of control (CaMK1 (human)) was 49%. The kinase still bound, per cent of control (DAPK3 (human)) was 45%, the kinase still bound, per cent of control [1] was 62% and the kinase still bound, per cent of control (EPHA7 (human)) was 100%. The kinase still bound, per cent of control [2] was 9.2%, the kinase still bound, per cent of control (MAP3K3 (human)) was 0.1% and the kinase still bound, per cent of control (MAP3K4 (human)) was 73%. For the same compound, the kinase still bound, per cent of control (MAP4K5 (human)) was 75%, the kinase still bound, per cent of control (MAPK11 (human)) was 89% and the kinase still bound, per cent of control (MELK (human)) was 43%. It also gave a kinase still bound, per cent of control (MYLK (human)) of 69%, a kinase still bound, per cent of control (NEK5 (human)) of 58% and a kinase still bound, per cent of control (NTRK1 (human)) of 18%. It also gave a kinase still bound, per cent of control (NUAK2 (human)) of 2.6%, a kinase still bound, per cent of control (PDPK1 (human)) of 86% and a kinase still bound, per cent of control (PIP4K2B (human)) of 36%. The kinase still bound, per cent of control (PKN1 (human)) was 69%, the kinase still bound, per cent of control (PLK3 (human)) was 72% and the kinase still bound, per cent of control (PRKCD (human)) was 100%. For the same compound, the kinase still bound, per cent of control (PTK2B (human)) was 74%, the kinase still bound, per cent of control (PTK6 (human)) was 37% and the kinase still bound, per cent of control (RIOK1 (human)) was 18%. The kinase still bound, per cent of control (STK35 (human)) was 89%, the kinase still bound, per cent of control (TLK1 (human)) was 100% and the kinase still bound, per cent of control (TNIK (human)) was 29%. For the same compound, the kinase still bound, per cent of control (TNK1 (human)) was 0.4%, the kinase still bound, per cent of control (TNNI3K (human)) was 28% and the kinase still bound, per cent of control (TSSK1B (human)) was 53%. The kinase still bound, per cent of control (WEE2 (human)) was 97%.

Cc1ccc(C(=O)Nc2cccc(C(F)(F)F)c2)cc1Nc1cncc(C(N)=O)c1 showed a kinase still bound, per cent of control (ABL2 (human)) of 21%, a kinase still bound, per cent of control (ANKK1 (human)) of 100% and a kinase still bound, per cent of control (AURKC (human)) of 100%. It also gave a kinase still bound, per cent of control (BLK (human)) of 100%, a kinase still bound, per cent of control (BRSK2 (human)) of 100% and a kinase still bound, per cent of control (CAMK1G (human)) of 100%. It also gave a kinase still bound, per cent of control (CAMK4 (human)) of 100%, a kinase still bound, per cent of control (CDK14 (human)) of 100% and a kinase still bound, per cent of control (CIT (human)) of 100%. It also gave a kinase still bound, per cent of control (CSNK1E (human)) of 100%, a kinase still bound, per cent of control (CSNK1G3 (human)) of 100% and a kinase still bound, per cent of control (CaMK1 (human)) of 100%. The kinase still bound, per cent of control (DAPK3 (human)) was 100%, the kinase still bound, per cent of control [1] was 100% and the kinase still bound, per cent of control (EPHA7 (human)) was 100%. For the same compound, the kinase still bound, per cent of control [2] was 100%, the kinase still bound, per cent of control (MAP3K3 (human)) was 100% and the kinase still bound, per cent of control (MAP3K4 (human)) was 100%. It also gave a kinase still bound, per cent of control (MAP4K5 (human)) of 100%, a kinase still bound, per cent of control (MAPK11 (human)) of 100% and a kinase still bound, per cent of control (MELK (human)) of 100%. It also gave a kinase still bound, per cent of control (MYLK (human)) of 100%, a kinase still bound, per cent of control (NEK5 (human)) of 100% and a kinase still bound, per cent of control (NTRK1 (human)) of 100%. It also gave a kinase still bound, per cent of control (NUAK2 (human)) of 100%, a kinase still bound, per cent of control (PDPK1 (human)) of 100% and a kinase still bound, per cent of control (PIP4K2B (human)) of 100%. It also gave a kinase still bound, per cent of control (PKN1 (human)) of 100%, a kinase still bound, per cent of control (PLK3 (human)) of 100% and a kinase still bound, per cent of control (PRKCD (human)) of 100%. It also gave a kinase still bound, per cent of control (PTK2B (human)) of 100%, a kinase still bound, per cent of control (PTK6 (human)) of 100% and a kinase still bound, per cent of control (RIOK1 (human)) of 100%. The kinase still bound, per cent of control (STK35 (human)) was 100%, the kinase still bound, per cent of control (TLK1 (human)) was 100% and the kinase still bound, per cent of control (TNIK (human)) was 100%. For the same compound, the kinase still bound, per cent of control (TNK1 (human)) was 100%, the kinase still bound, per cent of control (TNNI3K (human)) was 12% and the kinase still bound, per cent of control (TSSK1B (human)) was 100%. It also gave a kinase still bound, per cent of control (WEE2 (human)) of 100%.
